{"source": "ChEMBL document CHEMBL1201862", "about": "“PubChem BioAssay data set” (2004)", "key": {"Aminopeptidase N": {"biological_target": "T1, Aminopeptidase N (Plasmodium falciparum FcB1/Columbia, UniProt O96935)", "T1 sequence (O96935 whole entry)": "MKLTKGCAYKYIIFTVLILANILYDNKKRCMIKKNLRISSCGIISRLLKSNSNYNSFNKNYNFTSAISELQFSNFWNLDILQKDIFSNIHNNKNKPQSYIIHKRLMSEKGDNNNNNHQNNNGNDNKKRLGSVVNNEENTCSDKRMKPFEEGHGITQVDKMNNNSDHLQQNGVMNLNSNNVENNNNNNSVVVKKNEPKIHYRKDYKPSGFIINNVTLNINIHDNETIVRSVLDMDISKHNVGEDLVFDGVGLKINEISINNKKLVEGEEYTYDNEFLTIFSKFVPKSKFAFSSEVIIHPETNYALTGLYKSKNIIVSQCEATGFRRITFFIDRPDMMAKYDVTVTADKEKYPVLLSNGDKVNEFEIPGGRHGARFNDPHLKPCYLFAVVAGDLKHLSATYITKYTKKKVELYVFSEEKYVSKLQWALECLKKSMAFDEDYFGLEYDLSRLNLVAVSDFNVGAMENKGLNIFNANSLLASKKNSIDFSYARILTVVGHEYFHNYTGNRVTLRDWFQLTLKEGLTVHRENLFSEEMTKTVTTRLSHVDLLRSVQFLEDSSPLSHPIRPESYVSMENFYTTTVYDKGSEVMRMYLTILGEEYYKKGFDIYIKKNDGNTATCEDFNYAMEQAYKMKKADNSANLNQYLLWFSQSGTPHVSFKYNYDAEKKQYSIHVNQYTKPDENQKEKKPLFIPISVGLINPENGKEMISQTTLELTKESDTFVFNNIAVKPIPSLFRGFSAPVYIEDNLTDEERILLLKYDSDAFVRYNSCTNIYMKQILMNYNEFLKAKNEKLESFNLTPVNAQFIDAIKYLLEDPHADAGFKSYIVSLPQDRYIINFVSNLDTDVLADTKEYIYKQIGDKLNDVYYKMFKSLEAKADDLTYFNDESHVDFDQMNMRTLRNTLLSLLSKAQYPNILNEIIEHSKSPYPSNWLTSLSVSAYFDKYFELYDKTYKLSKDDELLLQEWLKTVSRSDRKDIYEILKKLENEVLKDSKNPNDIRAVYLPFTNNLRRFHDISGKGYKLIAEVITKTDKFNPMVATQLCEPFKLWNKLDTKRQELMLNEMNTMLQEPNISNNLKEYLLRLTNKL", "test": "P. falciparum M1AAP inhibitors, biochemical, fluorogenic H-Leu-NHMec substrate, 1536-well (AID 1445)", "design": "species or system Plasmodium falciparum 3D7, 3D7"}, "Large T antigen": {"biological_target": "Large T antigen (Simian virus 40, UniProt P03070)", "sequence (P03070 whole entry)": "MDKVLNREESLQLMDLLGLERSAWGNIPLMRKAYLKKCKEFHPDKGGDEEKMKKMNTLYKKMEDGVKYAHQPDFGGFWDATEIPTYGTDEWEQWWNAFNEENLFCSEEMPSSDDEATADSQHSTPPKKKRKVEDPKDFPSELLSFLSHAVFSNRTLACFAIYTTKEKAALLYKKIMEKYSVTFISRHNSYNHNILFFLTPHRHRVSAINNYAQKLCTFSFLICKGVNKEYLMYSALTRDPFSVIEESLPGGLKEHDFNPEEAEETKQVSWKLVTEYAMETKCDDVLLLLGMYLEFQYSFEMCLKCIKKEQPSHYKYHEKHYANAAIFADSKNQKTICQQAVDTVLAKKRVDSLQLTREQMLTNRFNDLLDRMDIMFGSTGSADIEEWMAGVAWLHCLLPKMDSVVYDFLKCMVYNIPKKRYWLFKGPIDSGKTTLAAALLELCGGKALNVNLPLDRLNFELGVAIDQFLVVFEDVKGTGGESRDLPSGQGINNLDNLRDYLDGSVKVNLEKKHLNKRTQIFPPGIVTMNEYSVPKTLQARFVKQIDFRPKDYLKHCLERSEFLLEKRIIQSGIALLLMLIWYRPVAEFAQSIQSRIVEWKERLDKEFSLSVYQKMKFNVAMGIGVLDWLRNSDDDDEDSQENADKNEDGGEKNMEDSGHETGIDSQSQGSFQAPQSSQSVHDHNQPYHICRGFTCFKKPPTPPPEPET", "assay_type": "functional, Betapolyomavirus macacae"}, "Salmon testes DNA": {"test_system": "Salmon testes DNA", "test": "DNA intercalators displacing acridine orange, dose response, artefact control for KSHV LANA DNA-binding inhibitor project, biochemical, fluorescence polarization, cherry-picked samples, set 2 (AID 504727)", "design": "species or system Salmonidae"}, "ORF 73": {"biological_target": "T2, ORF 73 (Human herpesvirus 8, UniProt O40947)", "T2 sequence (O40947 whole entry)": "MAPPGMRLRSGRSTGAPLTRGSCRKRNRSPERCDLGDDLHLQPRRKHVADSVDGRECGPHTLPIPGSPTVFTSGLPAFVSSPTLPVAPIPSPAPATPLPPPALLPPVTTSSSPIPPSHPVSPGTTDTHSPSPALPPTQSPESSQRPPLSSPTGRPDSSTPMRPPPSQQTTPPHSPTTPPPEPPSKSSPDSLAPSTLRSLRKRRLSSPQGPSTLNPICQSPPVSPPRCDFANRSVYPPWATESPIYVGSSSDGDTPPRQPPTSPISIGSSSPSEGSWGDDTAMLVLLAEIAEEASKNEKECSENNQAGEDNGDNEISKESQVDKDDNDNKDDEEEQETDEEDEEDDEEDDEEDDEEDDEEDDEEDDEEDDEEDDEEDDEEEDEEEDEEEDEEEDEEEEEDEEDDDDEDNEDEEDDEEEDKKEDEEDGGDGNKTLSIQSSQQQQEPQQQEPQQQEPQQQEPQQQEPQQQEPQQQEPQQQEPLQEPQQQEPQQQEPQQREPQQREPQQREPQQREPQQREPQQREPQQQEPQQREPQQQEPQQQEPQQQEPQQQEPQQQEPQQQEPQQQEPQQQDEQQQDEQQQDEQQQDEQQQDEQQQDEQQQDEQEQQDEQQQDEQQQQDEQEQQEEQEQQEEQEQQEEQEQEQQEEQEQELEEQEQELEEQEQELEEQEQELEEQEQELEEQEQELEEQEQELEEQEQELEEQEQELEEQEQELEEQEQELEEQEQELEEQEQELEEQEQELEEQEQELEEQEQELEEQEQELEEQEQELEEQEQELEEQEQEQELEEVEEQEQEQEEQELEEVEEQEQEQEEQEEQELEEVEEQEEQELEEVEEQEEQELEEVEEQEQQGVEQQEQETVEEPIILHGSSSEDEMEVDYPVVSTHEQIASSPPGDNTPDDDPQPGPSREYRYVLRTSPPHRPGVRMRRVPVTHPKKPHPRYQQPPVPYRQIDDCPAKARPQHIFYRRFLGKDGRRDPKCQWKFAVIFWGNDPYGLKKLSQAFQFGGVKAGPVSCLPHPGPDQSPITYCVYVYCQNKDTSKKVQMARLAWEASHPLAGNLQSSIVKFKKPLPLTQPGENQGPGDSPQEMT", "test": "inhibitors of C-LANA binding to LBS DNA, dose response, biochemical, fluorescence polarization, cherry-picked samples (AID 504725);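 also: fluorescence polarization of a labeled DNA duplex reporting LANA DNA binding; potency is for inhibitors that block LANA binding to the DNA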", "design": "species or system Human gammaherpesvirus 8"}, "[1]": {"biological_target": "T3, Polyadenylate-binding protein 1 (Homo sapiens, UniProt P11940)", "T3 sequence (P11940 whole entry)": "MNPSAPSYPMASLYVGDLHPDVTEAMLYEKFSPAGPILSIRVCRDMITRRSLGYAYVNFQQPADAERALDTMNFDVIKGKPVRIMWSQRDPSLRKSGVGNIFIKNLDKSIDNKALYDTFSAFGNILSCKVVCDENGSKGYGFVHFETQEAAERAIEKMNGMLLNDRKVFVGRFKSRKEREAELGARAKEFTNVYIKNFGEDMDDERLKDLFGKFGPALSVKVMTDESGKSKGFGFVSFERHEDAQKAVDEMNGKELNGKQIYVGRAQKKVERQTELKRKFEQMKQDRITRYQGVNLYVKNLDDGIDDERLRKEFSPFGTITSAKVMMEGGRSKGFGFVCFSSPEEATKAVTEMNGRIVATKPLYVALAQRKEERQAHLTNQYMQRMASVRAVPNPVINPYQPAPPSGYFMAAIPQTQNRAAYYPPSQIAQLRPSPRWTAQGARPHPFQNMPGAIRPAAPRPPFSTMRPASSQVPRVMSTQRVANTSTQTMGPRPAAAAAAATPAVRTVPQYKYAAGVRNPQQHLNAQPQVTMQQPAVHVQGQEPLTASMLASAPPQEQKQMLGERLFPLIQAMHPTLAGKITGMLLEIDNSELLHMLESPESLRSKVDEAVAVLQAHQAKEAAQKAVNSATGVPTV", "test": "PABP1 MLLE–PAM2 interaction inhibitors, dose response, miRNA deadenylation inhibitor project, biochemical, fluorescence polarization, Cy5-PAM2 peptide, secondary (AID 602260)", "assay_type": "functional", "conditions": "read-out: IC50_Mean"}, "[2]": {"biological_target": "T3, Polyadenylate-binding protein 1", "test": "PABP1 MLLE–PAM2 binding inhibitor potency, dose response, biochemical, fluorescence polarization, FITC-PAM2 peptide (AID 602259)", "assay_type": "functional", "conditions": "read-out: IC50_Mean"}}, "note": "Activity calls are given as the source filed them."}
{"smiles": "Cc1cc(C)c(S(=O)(=O)Nc2cc(SCC(=O)O)c(O)c3ccccc23)cc1C", "values": [{"measurement": "IC50", "setting": "Aminopeptidase N", "value": "48.5 µM (active)"}]}
{"smiles": "O=C(O)c1cc(N2N=C(C(F)(F)F)/C(=C/C=C/c3ccco3)C2=O)ccc1Cl", "values": [{"measurement": "IC50", "setting": "Large T antigen", "value": "4.47 µM (active)"}, {"measurement": "AC50", "setting": "Salmon testes DNA", "value": "126 µM (active)"}, {"measurement": "AC50", "setting": "ORF 73", "value": "2.28 µM (active)"}]}
{"smiles": "CNCc1ccccc1Sc1ccc(O)c(O)c1", "values": [{"measurement": "IC50", "setting": "[1]", "value": "> 66 µM (inactive)"}, {"measurement": "IC50", "setting": "[2]", "value": "> 66 µM (inactive)"}]}
